Source: PubChem BioAssay (NCI)
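Tested at 5 concentrations; 48 h exposure; 96-well plates; endpoints linearly interpolated, else capped at highest concentration. TGI is the concentration that stops growth completely.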

Tests used:
Experiment in all cases: growth of human tumour cells (NCI), 48 h
U251 CNS = tested on: U251 CNS
OVCAR-5 ovarian = tested on: OVCAR-5 ovarian
T-47D breast = tested on: T-47D breast
DU-145 prostate = tested on: DU-145 prostate
SK-MEL-28 melanoma = tested on: SK-MEL-28 melanoma
SNB-19 CNS = tested on: SNB-19 CNS
SNB-75 CNS = tested on: SNB-75 CNS
UACC-62 melanoma = tested on: UACC-62 melanoma
SF-295 CNS = tested on: SF-295 CNS
K-562 leukemia = tested on: K-562 leukemia
HOP-62 NSCLC = tested on: HOP-62 NSCLC
HCT-15 colon = tested on: HCT-15 colon
MALME-3M melanoma = tested on: MALME-3M melanoma
MDA-MB-435 = tested on: MDA-MB-435
HL-60(TB) leukemia = tested on: HL-60(TB) leukemia
HCT-116 colon = tested on: HCT-116 colon
LOX IMVI melanoma = tested on: LOX IMVI melanoma
HOP-92 NSCLC = tested on: HOP-92 NSCLC
SN12C renal = tested on: SN12C renal
HT29 colon = tested on: HT29 colon
IGROV1 ovarian = tested on: IGROV1 ovarian
MCF7 breast = tested on: MCF7 breast
UACC-257 melanoma = tested on: UACC-257 melanoma
UO-31 renal = tested on: UO-31 renal
SK-MEL-2 melanoma = tested on: SK-MEL-2 melanoma
MOLT-4 leukemia = tested on: MOLT-4 leukemia
SK-MEL-5 melanoma = tested on: SK-MEL-5 melanoma
CCRF-CEM leukemia = tested on: CCRF-CEM leukemia
NCI-H460 lung = tested on: NCI-H460 lung
A498 renal = tested on: A498 renal
OVCAR-8 ovarian = tested on: OVCAR-8 ovarian
SW-620 colon = tested on: SW-620 colon
OVCAR-3 ovarian = tested on: OVCAR-3 ovarian
COLO 205 colon = tested on: COLO 205 colon
HS 578T breast = tested on: HS 578T breast
SR leukemia = tested on: SR leukemia
BT-549 breast = tested on: BT-549 breast
TK-10 renal = tested on: TK-10 renal
HCC-2998 colon = tested on: HCC-2998 colon
RXF 393 renal = tested on: RXF 393 renal
MDA-MB-231 breast = tested on: MDA-MB-231 breast
NCI/ADR-RES ovarian = tested on: NCI/ADR-RES ovarian
MDA-N = tested on: MDA-N
RPMI-8226 leukemia = tested on: RPMI-8226 leukemia
OVCAR-4 ovarian = tested on: OVCAR-4 ovarian
KM12 colon = tested on: KM12 colon
CAKI-1 renal = tested on: CAKI-1 renal
PC-3 prostate = tested on: PC-3 prostate
NCI-H23 lung = tested on: NCI-H23 lung
NCI-H226 lung = tested on: NCI-H226 lung
M14 melanoma = tested on: M14 melanoma
786-0 renal = tested on: 786-0 renal
SK-OV-3 ovarian = tested on: SK-OV-3 ovarian
SF-539 CNS = tested on: SF-539 CNS
A549 NSCLC = tested on: A549 NSCLC
SF-268 CNS = tested on: SF-268 CNS
EKVX NSCLC = tested on: EKVX NSCLC
ACHN renal = tested on: ACHN renal

Cc1[nH]c(=O)[nH]c(=S)c1C(=O)NC1C2CCCCC2NC2CCCCC21 (stereo not drawn) was tested. Which TGI (U251 CNS) did it give?
The TGI was 27.1 µM.

And the TGI (OVCAR-5 ovarian)?
The TGI was 34.1 µM.

What about the TGI (T-47D breast) of the same compound?
The TGI was 43.8 µM.

And the TGI (DU-145 prostate)?
Its TGI is 26.6 µM.

What about the TGI (SK-MEL-28 melanoma) of the same compound?
Its TGI is 23.8 µM.

What about the TGI (SNB-19 CNS) of the same compound?
The TGI was 29.7 µM.

And the TGI (SNB-75 CNS)?
The TGI was 32.3 µM.

What about the TGI (UACC-62 melanoma) of the same compound?
Its TGI is 16.3 µM.

And the TGI (SF-295 CNS)?
The TGI was 32.8 µM.

And the TGI (K-562 leukemia)?
The TGI was over 100 µM.

What about the TGI (HOP-62 NSCLC) of the same compound?
The TGI was 32.9 µM.

And the TGI (HCT-15 colon)?
Its TGI is 25.9 µM.

And the TGI (MALME-3M melanoma)?
The TGI was 46.8 µM.

What about the TGI (MDA-MB-435) of the same compound?
Its TGI is 20.7 µM.

What about the TGI (HL-60(TB) leukemia) of the same compound?
The TGI was over 100 µM.

And the TGI (HCT-116 colon)?
The TGI was 31 µM.

What about the TGI (LOX IMVI melanoma) of the same compound?
The TGI was 64 µM.

And the TGI (HOP-92 NSCLC)?
Its TGI is 33.6 µM.

What about the TGI (SN12C renal) of the same compound?
Its TGI is 58 µM.

And the TGI (HT29 colon)?
The TGI was 48 µM.

And the TGI (IGROV1 ovarian)?
The TGI was 33.2 µM.

And the TGI (MCF7 breast)?
The TGI was 37.2 µM.

What about the TGI (UACC-257 melanoma) of the same compound?
The TGI was 33.5 µM.

What about the TGI (UO-31 renal) of the same compound?
Its TGI is 26.7 µM.

What about the TGI (SK-MEL-2 melanoma) of the same compound?
The TGI was 36.6 µM.

And the TGI (MOLT-4 leukemia)?
Its TGI is 43.9 µM.

What about the TGI (SK-MEL-5 melanoma) of the same compound?
Its TGI is 33.3 µM.

What about the TGI (CCRF-CEM leukemia) of the same compound?
The TGI was 36.2 µM.

What about the TGI (NCI-H460 lung) of the same compound?
The TGI was 31.6 µM.

What about the TGI (A498 renal) of the same compound?
Its TGI is 41.2 µM.

And the TGI (OVCAR-8 ovarian)?
The TGI was 36.2 µM.

And the TGI (SW-620 colon)?
The TGI was 40.2 µM.

And the TGI (OVCAR-3 ovarian)?
The TGI was 29.5 µM.

And the TGI (COLO 205 colon)?
The TGI was 39.5 µM.

And the TGI (HS 578T breast)?
The TGI was 61.8 µM.

What about the TGI (SR leukemia) of the same compound?
The TGI was over 100 µM.

And the TGI (BT-549 breast)?
The TGI was 32.8 µM.

And the TGI (TK-10 renal)?
Its TGI is 30.6 µM.

And the TGI (HCC-2998 colon)?
The TGI was 84.6 µM.

And the TGI (RXF 393 renal)?
Its TGI is 27.6 µM.

And the TGI (MDA-MB-231 breast)?
Its TGI is 33.1 µM.

And the TGI (NCI/ADR-RES ovarian)?
The TGI was 40.2 µM.

And the TGI (MDA-N)?
The TGI was 34.9 µM.

And the TGI (RPMI-8226 leukemia)?
Its TGI is over 100 µM.

And the TGI (OVCAR-4 ovarian)?
Its TGI is 50.7 µM.

And the TGI (KM12 colon)?
The TGI was 34.4 µM.

What about the TGI (CAKI-1 renal) of the same compound?
The TGI was 33.7 µM.

What about the TGI (PC-3 prostate) of the same compound?
Its TGI is 29.4 µM.

And the TGI (NCI-H23 lung)?
Its TGI is 29.8 µM.

And the TGI (NCI-H226 lung)?
The TGI was 33.2 µM.

What about the TGI (M14 melanoma) of the same compound?
The TGI was 29.6 µM.

Cc1ccc(O)c(-c2cc(-c3cccc(Br)c3)on2)c1 was tested. Which TGI (U251 CNS) did it give?
The TGI was 33.7 µM.

What about the TGI (786-0 renal) of the same compound?
The TGI was over 100 µM.

What about the TGI (OVCAR-5 ovarian) of the same compound?
The TGI was over 100 µM.

And the TGI (T-47D breast)?
The TGI was over 100 µM.

What about the TGI (DU-145 prostate) of the same compound?
The TGI was over 100 µM.

What about the TGI (SK-MEL-28 melanoma) of the same compound?
Its TGI is 52.8 µM.

What about the TGI (SNB-19 CNS) of the same compound?
The TGI was over 100 µM.

What about the TGI (SNB-75 CNS) of the same compound?
Its TGI is 86.2 µM.

What about the TGI (UACC-62 melanoma) of the same compound?
Its TGI is 78.1 µM.

And the TGI (SF-295 CNS)?
Its TGI is over 100 µM.

What about the TGI (K-562 leukemia) of the same compound?
The TGI was over 100 µM.

And the TGI (HOP-62 NSCLC)?
Its TGI is over 100 µM.

And the TGI (HCT-15 colon)?
The TGI was over 100 µM.

And the TGI (MALME-3M melanoma)?
Its TGI is 68.9 µM.

And the TGI (MDA-MB-435)?
Its TGI is 50 µM.

And the TGI (HL-60(TB) leukemia)?
Its TGI is 81.9 µM.

What about the TGI (HCT-116 colon) of the same compound?
Its TGI is 57.7 µM.

And the TGI (LOX IMVI melanoma)?
The TGI was 31.5 µM.

What about the TGI (SK-OV-3 ovarian) of the same compound?
The TGI was 68.6 µM.

What about the TGI (HOP-92 NSCLC) of the same compound?
Its TGI is over 100 µM.

What about the TGI (SN12C renal) of the same compound?
The TGI was 55.1 µM.

And the TGI (SF-539 CNS)?
Its TGI is over 100 µM.

And the TGI (HT29 colon)?
The TGI was 67.3 µM.

And the TGI (IGROV1 ovarian)?
The TGI was over 100 µM.

What about the TGI (MCF7 breast) of the same compound?
Its TGI is 32.5 µM.

What about the TGI (UACC-257 melanoma) of the same compound?
Its TGI is over 100 µM.

What about the TGI (UO-31 renal) of the same compound?
Its TGI is over 100 µM.

What about the TGI (SK-MEL-2 melanoma) of the same compound?
Its TGI is 56 µM.

And the TGI (MOLT-4 leukemia)?
Its TGI is over 100 µM.

What about the TGI (SK-MEL-5 melanoma) of the same compound?
The TGI was 41.6 µM.

What about the TGI (A549 NSCLC) of the same compound?
Its TGI is over 100 µM.

And the TGI (CCRF-CEM leukemia)?
Its TGI is over 100 µM.

And the TGI (SF-268 CNS)?
The TGI was 89.9 µM.

What about the TGI (NCI-H460 lung) of the same compound?
Its TGI is over 100 µM.

And the TGI (A498 renal)?
The TGI was over 100 µM.

What about the TGI (OVCAR-8 ovarian) of the same compound?
Its TGI is 67.3 µM.

And the TGI (SW-620 colon)?
The TGI was 46.7 µM.

And the TGI (OVCAR-3 ovarian)?
The TGI was 51.7 µM.

And the TGI (COLO 205 colon)?
Its TGI is 37.1 µM.

What about the TGI (HS 578T breast) of the same compound?
Its TGI is over 100 µM.

What about the TGI (SR leukemia) of the same compound?
Its TGI is 99.4 µM.

What about the TGI (EKVX NSCLC) of the same compound?
Its TGI is over 100 µM.

What about the TGI (BT-549 breast) of the same compound?
Its TGI is 77.5 µM.

And the TGI (TK-10 renal)?
The TGI was 43.2 µM.

And the TGI (HCC-2998 colon)?
Its TGI is 53.2 µM.

And the TGI (RXF 393 renal)?
The TGI was 35.7 µM.

And the TGI (ACHN renal)?
The TGI was over 100 µM.

And the TGI (MDA-MB-231 breast)?
The TGI was over 100 µM.

What about the TGI (NCI/ADR-RES ovarian) of the same compound?
Its TGI is over 100 µM.

And the TGI (MDA-N)?
The TGI was 65.2 µM.

And the TGI (RPMI-8226 leukemia)?
Its TGI is 85.2 µM.

What about the TGI (OVCAR-4 ovarian) of the same compound?
Its TGI is 34.6 µM.

What about the TGI (KM12 colon) of the same compound?
The TGI was 47.2 µM.

What about the TGI (CAKI-1 renal) of the same compound?
The TGI was over 100 µM.

What about the TGI (PC-3 prostate) of the same compound?
Its TGI is over 100 µM.

And the TGI (NCI-H23 lung)?
The TGI was over 100 µM.

And the TGI (M14 melanoma)?
Its TGI is over 100 µM.
